Columns and labels:
[1] = tested on: Hippocampal Cell Line (HT22); assay: Glutamate-induced oxidative toxicity in hippocampal cell line (HT22): mitochondrial membrane potential by JC-1 fluorescence ratio; type: cell-based, mouse; details: 10^-7 M compound; for protection against glutamate-mediated damage to the mitochondria (in words) / JC-1 ratio B (+glutamate 5 mM) / JC-1 ratio A (control conditions): HT-22 cells; for protection against glutamate-mediated damage to the mitochondria (in words): 5 mM glutamate; for JC-1 ratio B (+glutamate 5 mM) / JC-1 ratio A (control conditions): 24h, fluorescence ratio 530/590:480/530; for JC-1 ratio A (control conditions): control conditions (no glutamate); for JC-1 ratio B/A (%): ratio of +glutamate 5 mM to control conditions; for effect on mitochondrial membrane potential of the control cells (in words): HT-22 control cells without glutamate
Method: Table 1: Effects of ML Compounds of the Invention on Glutamate-induced Oxidative Toxicity in Hippocampal Cell Line (HT22)
The changes in the mithochondrial membrane potential was assessed using the fluorescent probe 5,5′,6,6′-tetrachloro-1,1′,3,3′-tetraethylbenzimidazolcarbocyanine iodide (JC-1) according to Nuydens et al, 1999, L of Neuroscience; 92, 153-9. Immortalized mouse hipocampal cells (HT-22) were maintained in Dulbecco's modified minimal essential medium (DMEM) supplemented with 10% fetal bovine serum and passaged by trypsinization. Cells (3000 per 96 palte well) were cultured for 24h with DMEM containing 5 mM glutamate and were treated with 10^−7 M of the ML compounds. Cells were then loaded with JC-1 by changing the culture medium to Phosphate buffered saline (PBS) containing 1 g/L glucose and 10 uM JC-1 for 10 mln. at 37° and were washed once. Flouresence was then measured in a plate reader at excitation/emission wavelengths of 480/530 nm and 530/590 nm. The ratio of the fluoresence intensities in the two wavelengths 530/590:480/530 is an indication of the mitochondrial membrane potential. Decrease in this ratio indicates depolarization of the mitochondrial membrane due to damage induced by anoxic or other phathological situations leading to apoptosis of cells.

[2] = tested on: 125I-Melatonin Binding in Membranes of Hamster Brain; assay: 125I-Melatonin binding in membranes of hamster brain (competition); details: for inhibition of the specific 125I-melatonin binding: 10^-6M; for % bound at competitor concentration 10-6M / 125I-melatonin bound at competitor concentration 10-6M: competitor 10^-6M; for % bound at competitor concentration 10-6M / % bound at competitor concentration 10-7M: relative to competitor concentration 0; for 125I-melatonin bound at competitor concentration 10-6M / 125I-melatonin bound at competitor concentration 10-7M: 125I-melatonin 250 pM, 37° C., 60 min, radioactivity, unit not given; for % bound at competitor concentration 10-7M / 125I-melatonin bound at competitor concentration 10-7M: competitor 10^-7M
Method: ^125I-Melatonin Binding in Membranes of Hamster Brain
2 whole hamster brains were homogenized with Teflon-glass homogenizer in 10 vol/g tissue of ice cold Tris-HCl buffer (50 mmol/L Tris, 5 mmol/L CaCl2, pH=7.4) and spun at 10,000 g for 10 min. the supernatant were spun at 100,000 g for two hours to yield a crude synaptosomal pellet (P2).
Aliquots of suspended P2 (20 ul) were incubated at 37° C. with ^125I-melatonin (250 pM) for 60 mln. in Tris-Hcl buffer in the absence or presence of 1 nM-100 μM test-substances (ML compounds and melatonin). The binding reaction was terminated by the addition of 4 ml ice cold Tris buffer. Membranes were then collected by vacuum filtration using GF/C glass fiber filters and washed with 3×4 ml ice-cold buffer. The filters containing the bound ^125I-melatonin were assayed for the amount of radioactivity in a γ counter. […] ML-29, ML-30 and ML-31 (10^−6M) inhibited (≧20%) the specific ^125I-melatonin binding. ML-27, ML-28 and ML-23 reduced the specific ^125I-melatonin binding to a lesser extent (˜13%).

SMILES	protection against glutamate-mediated damage to the mitochondria (in words) [1]	JC-1 ratio B (+glutamate 5 mM) [1]	JC-1 ratio A (control conditions) [1]	JC-1 ratio B/A (%) [1] [%]	inhibition of the specific 125I-melatonin binding [2] [%]	% bound at competitor concentration 10-6M [2] [%]	125I-melatonin bound at competitor concentration 10-6M [2]	% bound at competitor concentration 10-7M [2] [%]	125I-melatonin bound at competitor concentration 10-7M [2]	effect on mitochondrial membrane potential of the control cells (in words) [1]
COc1ccc2[nH]cc(CCNC(C)=O)c2c1 [Melatonin, reference compound]	significantly protected	2.44	2.48	98	20	79	335	89	377	–
Cc1ccc2[nH]cc(CCNc3ccc([N+](=O)[O-])cc3[N+](=O)[O-])c2c1 [ML-28, N-(2,4-dinitrophenyl)-5-methyltryptamine]	did not protect	2.28	2.77	82	~13	87	365	91	381	elevated
COc1ccc2[nH]cc(CCNc3ccc([N+](=O)[O-])cc3[N+](=O)[O-])c2c1 [ML-23, N-(2,4-dinitrophenyl)-5-methoxytryptamine, reference compound]	significantly protected	1.97	2.19	90	~13	87	403	94	435	did not decrease
Cc1ccc2[nH]cc(CCNc3cc(N)c([N+](=O)[O-])cc3[N+](=O)[O-])c2c1 [ML-31, N-(2,4-dinitro-5-aminophenyl)-5′-methyltryptamine]	without providing protection	1.57	1.93	81	–	72	334	94	438	decreased
Nc1cc(NCCc2c[nH]c3ccccc23)c([N+](=O)[O-])cc1[N+](=O)[O-] [ML-27, N-(2,4-dinitro-5-aminophenyl)tryptamine]	significantly protected	1.83	1.80	102	~13	87	426	92	448	decreased
CC(=O)Nc1cc(NCCc2c[nH]c3ccc(C)cc23)c([N+](=O)[O-])cc1[N+](=O)[O-] [ML-29, 2,4-dinitro-5-(5′-methyltryptyl)aminoacetanilide]	without providing protection	1.79	2.28	78	–	80	358	90	404	decreased
O=[N+]([O-])c1ccc(NCCc2c[nH]c3ccccc23)c([N+](=O)[O-])c1 [ML-25, N-(2,4-dinitrophenyl)tryptamine]	significantly protected	2.01	2.21	91	–	91	390	92	396	did not decrease
COc1ccc2[nH]cc(CCNc3cc(NC(C)=O)c([N+](=O)[O-])cc3[N+](=O)[O-])c2c1 [ML-30, 2,4-dinitro-5-(5′-methoxytryptyl)aminoacetanilide]	significantly protected	2.13	1.83	116	–	80	409	96	488	decreased
COc1ccc2[nH]cc(CCNc3cc(N)c([N+](=O)[O-])cc3[N+](=O)[O-])c2c1 [ML-32, N-(2,4-dinitro-5-aminophenyl)-5′-methoxytryptamine]	without providing protection	1.76	2.15	82	–	93	419	90	408	decreased
CC(=O)Nc1cc(NCCc2c[nH]c3ccccc23)c([N+](=O)[O-])cc1[N+](=O)[O-] [ML-26, 2,4-dinitro-5-tryptylaminoacetanilide]	significantly protected	2.11	2.16	98	–	99	411	104	435	did not decrease

— patent US6780884B2, “Derivating of tryptamine and analogous compounds and pharmaceutical formulations containing them” (Neurim Pharmaceuticals (1991) Ltd., priority 2000, dated 2004)
